One compound from patent US8785594B2, “Glycoproteins and glycosylated cells and a method for the preparation of the same” (Glycom A/S, priority 2007, dated 2014) can be followed below.

Marks after values point to notes of the source that are not given here.

Holding throughout (assay type): cell-based
Experiment [1] deals with B16.BL6 melanoma cells. Briefly: Flow cytometry with FITC-labelled GS1B4 (Example 13). How it is done: The alpha-Gal trisaccharide probe (9) was dissolved in HBSS (Gibco Invitrogen, Taastrup, Denmark) and passed through a sterile filter (0.2 μm Supor® Acrodisc® 13, Gelman Sciences, Ann Arbor, Mich.). Three different concentrations of the alpha-Gal trisaccharide-carbamate (9) were made. Five small flasks were prepared with 606 μL of cell suspension containing a total of 10^6 B16.BL6 cells in addition to 4 mL of one of the conjugate solutions. Each flask contained a total volume of 4.6 mL. The cells were incubated with the “Glycom conjugate” for either 3 or 1.5 hours at 37° C.
After conjugation, the supernatant from each flask was transferred to separate 10 mL tubes (TPP, Trasadingen Switzerland). Cells were washed twice by adding PBS to the flasks and immediately removing it again. The cells were harvested with Cell Dissociation Solution (2 mL per flask) (Sigma-aldrich, Saint Louis, Mo.). After 5 minutes, cells were transferred to the 10 mL test tubes. The cells were centrifuged for 5 minutes at 300 G at 20° C. and resuspended in 0.5 mL of PBS. Cell concentration and viability was determined by microscopic evaluation of trypan blue stained cell samples.
One hundred μL of cell suspension containing 1×10^5 cells were incubated for 15 minutes at 4° C. with 10 μg per mL (1:100 dilution) of FITC-labelled GS1B4 in PBS. Rabbit red blood cells (A) were used for comparison,
As very few cells were available for flow cytometry analysis the exact cell concentration was not determined. Instead, the amount of cells used was estimated to 0.4×10^5. The cells were incubated for 15 minutes at 4° C. with 4 μg per mL of FITC-labelled GS1B4 in PBS. Rabbit red blood cells (B) were used for comparison.
Mean and median cell fluorescence intensity was determined by flow cytometry.

The test system of experiment [2] is B16.BL6 melanoma cells. Briefly: Flow cytometry with FITC-labelled GS1B4 (Example 15). As to conditions: all conjugation reactions, 10 μg-20 mg regular probe. How it is done: Radioactive labelled and regular alpha-Gal trisaccharide-carbamate (9) probe (labeled on the cyclic carbamate carbon) was dissolved in HBSS containing D-glucose (without Mg^2+ and Ca^2+) (Gibco Invitrogen, Taastrup, Denmark) and passed through sterile filters (0.2 μm Supor® Acrodisc® 13, Gelman Sciences, Ann Arbor, Mich.). Eight different concentrations of radioactive labelled alpha-Gal trisaccharide-carbamate (9) (1 μg, 10 μg, 100 μg, 1 mg, 5 mg, 10 mg, 15 mg and 20 mg) and […] concentrations of regular “Glycom conjugate” (10 μg, 100 μg, 1 mg, 5 mg, 10 mg, 15 mg and 20 mg) were used. Twelve flasks (300 cm^2) (TPP, Trasadingen Switzerland) were prepared, each containing 10×10^6 B16.BL6 cells, for conjugation with the radioactive labelled trisaccharide probe, and 8 flasks (150 cm^2) (TPP, Trasadingen Switzerland) were prepared, each containing 5×10^6 B16.BL6 cells, for conjugation with the non-radioactive conjugate. […] This was repeated 3 times before cell concentration and viability was determined by microscopic evaluation of trypan blue stained cell samples.
Cells conjugated with regular trisaccharide probe were analysed by flow cytometry. […] Mean fluorescence intensity of cells stained with GS1B4 was measured by flow cytometry.

The subject of experiment [3] is B16.BL6 melanoma cells. Nature of the experiment: Staining of cell smears with FITC-labelled GS1B4 (Example 11). How it is done: Five hundred mg of alpha-Gal trisaccharide-carbamate (9) was dissolved in PBS (without Mg^2+ and Ca^2+) (Gibco Invitrogen, Taastrup, Denmark) and passed through a sterile filter (Sartorius Minisart®, 0.20 my) (Sartorius, Goettingen, Germany). Eight different concentrations of conjugate were prepared. Two mL of each conjugate dilution was added to a flask with 2 mL of PBS (without Mg^2+ and Ca^2+) and 600 μl of cell suspension containing 10^6 B16.BL6 cells. The final volume of the flasks was 4.6 mL. The flasks were numbered 1 to 10. Flasks 1 and 10 contained no conjugate and served as controls. The cells were incubated with the conjugate for 3 hours and 25 minutes at 37° C. and 5% CO2.
Smears of cells from conjugation reaction 1 (non-conjugated control cells), 2, 4, 6 and 8 were incubated for 1 hour at room temperature with FITC-labelled GS1B4 diluted 1:200 in TBS. After a rinse in TBS, one drop of Fluorescent Mounting Medium (DAKO) was placed on each of the cell specimens and glass coverslips were placed on top. Binding of FITC-labelled GS1B4 to Galα1,3Gal on conjugated cells was assessed by fluorescence microscopy.

Where [4] appears, read: reaction 1, 19.2 mg, 3 hours, 10 μg per mL FITC-GS1B4.
The mark [5] stands for this setting: reaction 2, 19.2 mg, 1.5 hours, group of 35.3% of the cells.
[6] abbreviates: reaction 2, 19.2 mg, 1.5 hours, group of 62.7% of the cells.
[7] abbreviates: reaction 4, 58 mg, 1.5 hours, group of 15.65% of the cells.
Where [8] appears, read: reaction 4, 58 mg, 1.5 hours, group of 84.26% of the cells.

As to `O=C1N[C@@H]2O[C@H](CO)[C@@H](O[C@@H]3O[C@H](CO)[C@H](O)[C@H](O[C@H]4O[C@H](CO)[C@H](O)[C@H](O)[C@H]4O)[C@H]3O)[C@H](O)[C@H]2O1` [Compound 9, alpha-Gal trisaccharide-carbamate], in the experiment with B16.BL6 melanoma cells [1] (all conjugation reactions (1.9-58 mg, 1.5 or 3 hours)), the “Galα1,3Gal epitopes detected by binding of FITC-labelled GS1B4, flow cytometry” value is recorded as “found on B16.BL6 cells from all conjugation reactions”. For the same compound, the Mean fluorescence intensity with B16.BL6 melanoma cells [1] (setting [4]) came to 197.8; in the experiment on B16.BL6 melanoma cells [1] (setting [5]), 2940.2; with B16.BL6 melanoma cells [1] (setting [6]), 161.63; in the experiment with B16.BL6 melanoma cells [1] (reaction 3, 1.9 mg, 1.5 hours), 167.8; in the experiment with B16.BL6 melanoma cells [1] (setting [7]) it was 770.0; with B16.BL6 melanoma cells [1] (setting [8]), 49.2. Besides, the Median fluorescence intensity in the experiment with B16.BL6 melanoma cells [1] (setting [4]) came to 155.4; with B16.BL6 melanoma cells [1] (setting [5]) it was 2196.8; in the experiment on B16.BL6 melanoma cells [1] (setting [6]), 125.2; with B16.BL6 melanoma cells [1] (reaction 3, 1.9 mg, 1.5 hours) it was 66.4; in the experiment with B16.BL6 melanoma cells [1] (setting [7]), 504.8; in the experiment with B16.BL6 melanoma cells [1] (setting [8]) it was 44.1. The “Share of the cells in the group of higher fluorescence intensity” value with B16.BL6 melanoma cells [1] (reaction 2, 19.2 mg, 1.5 hours) was 2 (35.3% of the cells)**; in the experiment with B16.BL6 melanoma cells [1] (reaction 4, 58 mg, 1.5 hours), 4 (15.65% of the cells). In addition, the “Share of the cells in the group of lower fluorescence intensity” value with B16.BL6 melanoma cells [1] (reaction 2, 19.2 mg, 1.5 hours) is recorded as 2 (62.7% of the cells)**; in the experiment with B16.BL6 melanoma cells [1] (reaction 4, 58 mg, 1.5 hours), 4 (84.26% of the cells). Besides, the “Binding of FITC-labelled GS1B4 to cells” value with B16.BL6 melanoma cells [2] is “no binding above background levels”. In addition, the “Staining of cell membranes with FITC-labelled GS1B4” value with B16.BL6 melanoma cells [3] (conjugation reaction 2 (200 mg)) was “heavily stained”. For the same compound, in the experiment with B16.BL6 melanoma cells [3] (conjugation reactions 2, 4, 6 and 8 (200, 50, 10, 2 mg)), the “Galα1,3Gal epitopes detected by binding of FITC-labelled GS1B4 on cell smears” value is “found on cells from all conjugation reactions tested”.
